Values joined by “and” are separate entries in the source; they are usually repeats but may differ in a detail not shown here. Equal values may be shown once.
Tests used:
[1] = tested on: wheat powdery mildew; assay: Induced resistance of wheat seedlings to powdery mildew (greenhouse pots); type: in vivo, wheat (NAU0686); settings: for Relative immune effect: wheat powdery mildew; for Number of mycelia and conidium yield on wheat leaves: 10-10,000 nM, with the increase of concentration
Experimental: Take 2-amino-3-hydroxy-3-methylbutyric acid, dissolve it in distilled water, then dilute the solution with distilled water by gradient into 10 nM, 100 nM, 1,000 nM and 10,000 nM solutions, and set a blank control. Accelerate germination of wheat (NAU0686) seeds, then sow them in sterilized soil bowls, and culture them in a greenhouse of 23 (±1)° C. and 12 h illumination. Spray the 2-amino-3-hydroxy-3-methylbutyric acid solutions at the above concentrations to the stems and leaves of wheat seedlings when the seedlings have grown to have one leaf and one shoot, at an interval of 24 h and twice in total, evenly sprinkle fresh powdery wheat spores on the wheat leaves after 24 h, 3 pots each treatment, 20 plants per pot. Investigate the morbidity level of the wheat in each treatment after 10 d, record the morbidity level according to the wheat powdery mildew grading standard in the Pesticide—Guidelines for the Field Efficacy Trials(I) and calculate the disease index and relative immune effect by the calculation method same as that for the disease index and relative immune effect of tomato spotted wilt. Wheatpowdery mildew grading standard (with leaf as a unit): • Level 1: The area of the disease spots accounts for less than 5% of the whole leaf area; • Level 3: The area of the disease spots accounts for6%-15% of the whole leaf area; • Level 5: The area of the disease spots accounts for 16%-25% of the whole leaf area; • Level 7: The area of the disease spots accounts for26%-50% of the whole leaf area; • Level 9: The area of the disease spots accounts for more than 50% of the whole leaf area.

[2] = tested on: wheat powdery mildew; assay: Field test of induced resistance of wheat to powdery mildew; type: in vivo; settings: 1,000 nM; for Thousand kernel weight: dried harvested wheat seeds; for Relative immune effect: vs additive control
Experimental: Spraya 2-amino-3-hydroxy-3-methylbutyric acid solution (surfactant Tween 20 (0.02% (v/v) is added) at a concentration of 1,000 nM on stems and leaves in the field of Jiangsu Academy of Agricultural Sciences, use surfactant Tween 20 with a spray volume percent of 0.02% as an additive control, Atailing with 30 g sprayed per mu as a positive control, and repeat each treatment for three times. Investigate the wheat morbidity level of each treatment, record the morbidity level according to the wheat powdery mildew grading standard in the Pesticide—Guidelines for the Field Efficacy Trials(I) and calculate the disease index and relative immune effect by the calculation method same as that for the disease index and relative immune effect of tomato spotted wilt. After drying of the harvested wheat seeds, determine the thousand kernel weight of the wheat seeds under different treatments. The wheat powdery mildew grading standard (with leaf as a unit): • Level 1: The area of the disease spots accounts for less than 5% of the whole leaf area; • Level 3: The area of the disease spots accounts for 6%-15% of the whole leaf area; • Level 5: The area of the disease spots accounts for 16%-25% of the whole leaf area; • Level 7: The area of the disease spots accounts for 26%-50% of the whole leaf area; • Level 9: The area of the disease spots accounts for more than 50% of the whole leaf area.

[3] = tested on: tea under low-temperature stress; assay: Tea seedlings under low-temperature stress; type: in vivo, tea (Baiye 1#); settings: for PIABS (photosynthetic performance index): tea seedlings after 24 h at −4° C.; for Cold damage index: tea seedlings, 24 h at −4° C., recovered 3 d; for Decrease of cold damage index / Increase of PIABS: 10,000 nM (so in the source), tea, low-temperature stress, vs 0 nM
Experimental: The tea trees for test are cutting seedling Baiye 1#. Select tea seedlings with consistent growth, move them into plastic bowls with a diameter of 18 cm, put them in a greenhouse of 25° C. and RH 60%-70%, adapt to growth for about one week, and carry out the test. […] The spray treatment method is the same as the Arabidopsis treatment method in Embodiment 6, the time of low-temperature stress is 24 h, and the temperature is set at −4° C. Take out tea seedlings after stress, conduct dark treatment at room temperature for 30 min, then determine the chlorophyll fluorescence of leaves at the top of tea seedlings by plant efficiency Handy-PEA, then put them in a 25° C. greenhouse and recover them for 3 d, observe and calculate the cold damage condition and grade it. The statistics and grading standard of the cold damage index is shown in Table 12, the calculation formula is as follows and the results are as shown in Table 13. [formula] [table]

[4] = tested on: wheat under drought stress; assay: Hydroponic wheat under drought stress (25% PEG-6000); type: in vivo; settings: for Drought damage index / Dry weight, overground part / Dry weight, underground part / Fresh weight, overground part / Fresh weight, underground part / Root length: wheat, 6 d 25% PEG-6000, recovered 7 d; for Decrease of drought damage index / Increase of fresh weight of the overground part / Increase of fresh weight of the underground part / Increase of root length of wheat seedlings: compared to the control, drought stress
Experimental: Use a 6-mesh screen as a container for hydroponic culture of wheat, 50 grains per screen, replace the ½ Hoagland nutrient solution once every two days, spray 2-amino-3-hydroxy-3-methylbutyric acid solutions at2-amino-3-hydroxy-3-methylbutyric acid concentrations of 0, 100 and 1,000 nM when the wheat grows to the stage of two leaves and one shoot, and meanwhile, add 0.02% Tween 20 as a surfactant; after two days of continuous spray, replace the hydroponic nutrient solution with a ½ Hoagland nutrient solution containing 25% PEG-6000 for stress treatment,rewater after 6 d of drought stress, recover growth in a normal nutrient solution for 7 d, then observe and determine the drought damage index, and determine the root length and biomass.
The manifestation features after drought damage of leaves are similar to those after salt damage. By taking reference to the salt damage evaluation indexes, drought damage rate and drought damage index are introduced.

[5] = tested on: cotton under salt stress; assay: Hydroponic cotton under salt stress (100 mM NaCl); type: in vivo, cotton (Si Kang 1#); settings: 100 mM NaCl for three days
Experimental: The experimental material is “Si Kang 1#” cotton. Use 500 mL plastic cups for hydroponic culture and replace the ½Hoagland nutrient solution once every two days. Spray a 2-amino-3-hydroxy-3-methylbutyric acid solution on the leaf surface when the cotton seedlings grow until the second true leaf is fully open, set the concentrations at 0, 1, 10, 100 and 1,000 nM in the experiment, and add 0.02% Tween 20 as a surfactant. Spray once every 24 h, twice in total, add NaCl to the ½Hoagland nutrient solution on the second day after treatment to make its final concentration be 100 mM, and conduct salt stress treatment. Repeat each treatment three times. Rewater after three days of salt stress, observe the salt damage symptoms of cotton, and calculate the salt damage index by the following formula: […]

CC(c1ccc(O)cc1)C(N)C(=O)O (stereo not shown) [2-amino-3-(4-hydroxyphenyl) butyric acid]
Relative immune effect ([1]; 10 nM): 20.17%
Relative immune effect ([1]; 100 nM): 34.92%
Relative immune effect ([1]; 10,000 nM): 71.12%
Number of mycelia and conidium yield on wheat leaves [1]: decreased significantly
Thousand kernel weight [2]: 37.92 g and 37.92 ± 0.21 a g
Relative immune effect [2]: 47.28%
PIABS (photosynthetic performance index) ([3]; 1 nM): 28.10 ± 3.10cd
Cold damage index ([3]; 1 nM): 60%
PIABS (photosynthetic performance index) ([3]; 10 nM): 31.94 ± 1.37bc
Cold damage index ([3]; 10 nM): 55%
PIABS (photosynthetic performance index) ([3]; 100 nM): 34.67 ± 3.27ab
Cold damage index ([3]; 100 nM): 35%
PIABS (photosynthetic performance index) ([3]; 1,000 nM): 38.56 ± 2.23a
Cold damage index ([3]; 1,000 nM): 30%
Decrease of cold damage index [3]: 40%
Increase of PIABS [3]: 90.8%
Drought damage index ([4]; 100 nM): 47%
Dry weight, overground part ([4]; 100 nM): 0.83 ± 0.01a g
Dry weight, underground part ([4]; 100 nM): 0.36 ± 0.01a g
Fresh weight, overground part ([4]; 100 nM): 7.34 ± 0.18b g
Fresh weight, underground part ([4]; 100 nM): 3.70 ± 0.03b g
Root length ([4]; 100 nM): 14.02 ± 0.03a cm
Decrease of drought damage index ([4]; 1,000 nM): 49%
Increase of fresh weight of the overground part ([4]; 1,000 nM): 45.66%
Increase of fresh weight of the underground part ([4]; 1,000 nM): 57.93%
Increase of root length of wheat seedlings ([4]; 1,000 nM): 11.47%
Drought damage index ([4]; 1,000 nM): 25%
Dry weight, overground part ([4]; 1,000 nM): 0.93 ± 0.05a g
Dry weight, underground part ([4]; 1,000 nM): 0.39 ± 0.01a g
Fresh weight, overground part ([4]; 1,000 nM): 8.90 ± 0.15a g
Fresh weight, underground part ([4]; 1,000 nM): 4.58 ± 0.01a g
Root length ([4]; 1,000 nM): 14.67 ± 007a cm
Death rate ([5]; 1 nM): 48%
Salt damage index ([5]; 1 nM): 64%
Death rate ([5]; 10 nM): 45%
Salt damage index ([5]; 10 nM): 56%
Death rate ([5]; 100 nM): 30%
Salt damage index ([5]; 100 nM): 52%
Death rate ([5]; 1,000 nM): 29%
Salt damage index ([5]; 1,000 nM): 43%

CC(C)(O)C(N)C(=O)O (stereo not shown) [2-amino-3-hydroxy-3-methylbutyric acid]
Relative immune effect ([1]; 10 nM): 16.85%
Relative immune effect ([1]; 100 nM): 27.90%
Relative immune effect ([1]; 1,000 nM): 47.24%
Relative immune effect ([1]; 10,000 nM): 65.68%
Number of mycelia and conidium yield on wheat leaves [1]: decreased significantly
Disease index ([1]; concentration greater than or equal to 1,000 nM, susceptible wheat, powdery mildew): lower than 50
Thousand kernel weight [2]: 32.61 g and 32.61 ± 0.18 a g
Relative immune effect [2]: 38.74%
PIABS (photosynthetic performance index) ([3]; 10 nM): 28.35 ± 1.66c
Cold damage index ([3]; 10 nM): 65%
PIABS (photosynthetic performance index) ([3]; 100 nM): 30.67 ± 2.07bc
Cold damage index ([3]; 100 nM): 45%
PIABS (photosynthetic performance index) ([3]; 1,000 nM): 35.23 ± 1.96b
Cold damage index ([3]; 1,000 nM): 30%
Decrease of cold damage index [3]: 60%
Increase of PIABS [3]: 73%
PIABS (photosynthetic performance index) ([3]; 10,000 nM): 40.16 ± 2.15a
Cold damage index ([3]; 10,000 nM): 15%
Drought damage index ([4]; 100 nM): 45%
Dry weight, overground part ([4]; 100 nM): 0.80 ± 0.01b g
Dry weight, underground part ([4]; 100 nM): 0.33 ± 0.01a g
Fresh weight, overground part ([4]; 100 nM): 7.27 ± 0.02b g
Fresh weight, underground part ([4]; 100 nM): 3.65 ± 0.01b g
Root length ([4]; 100 nM): 13.94 ± 0.03a cm
Decrease of drought damage index ([4]; 1,000 nM): 51%
Increase of fresh weight of the overground part ([4]; 1,000 nM): 44.92%
Increase of fresh weight of the underground part ([4]; 1,000 nM): 55.02%
Increase of root length of wheat seedlings ([4]; 1,000 nM): 11.30%
Drought damage index ([4]; 1,000 nM): 26%
Dry weight, overground part ([4]; 1,000 nM): 0.92 ± 0.05a g
Dry weight, underground part ([4]; 1,000 nM): 0.37 ± 0.01a g
Fresh weight, overground part ([4]; 1,000 nM): 8.84 ± 0.09a g
Fresh weight, underground part ([4]; 1,000 nM): 4.48 ± 0.02a g
Root length ([4]; 1,000 nM): 14.58 ± 0.01a cm
Death rate ([5]; 1 nM): 51%
Salt damage index ([5]; 1 nM): 66%
Death rate ([5]; 10 nM): 47%
Salt damage index ([5]; 10 nM): 58%
Death rate ([5]; 100 nM): 34%
Salt damage index ([5]; 100 nM): 54%
Death rate ([5]; 1,000 nM): 30%
Salt damage index ([5]; 1,000 nM): 48%

— patent publication US20250169496A1, “USE OF 2-AMINO-3-HYDROXY-3-METHYLBUTYRIC ACID AND/OR 2-AMINO-3-(4-HYDROXYPHENYL) BUTYRIC ACID” (NANJING TIANNONG BIOTECHNOLOGY CO., LTD., priority 2021, published 2025)
